Results from paper PMC12190736, “Development and In Vitro Characterization of [^3H]GMC-058 as Radioligand for Imaging Parkinsonian-Related Proteinopathies” (Cells, 2025).
Marks after values point to notes of the source that are not given here.

Columns and labels:
[1] = system: tissue microarrays (TMAs) from cases with different proteinopathies; assay: Autoradiography and emulsion autoradiography on tissue microarrays; assay type: binding, human
Description: Tissue micro-arrays (TMAs), prepared from paraffin-embedded tissue from human post-mortem tissue as described in [14], were first de-paraffinized with two 1 h and one overnight incubation in Neo-Clear Xylene Substitute (Sigma-Aldrich, St. Louis, MO, USA) at 37 °C and then […] in three short incubations at RT with decreasing concentrations of ethanol before autoradiography with [^3H]GMC-058 was performed as described above. For the saturation binding autoradiography, duplicate slides of each TMA set were incubated with 0.3 nM to 200 nM [^3H]GMC-058. Adjacent sections were co-incubated with 5 μM of unlabeled GMC-044 to calculate NSB. The quantification of total and non-specific binding was performed via delineation of the ROIs on the whole core, except for MSA, where the ROI followed the areas in which the binding of [^3H]GMC-058 corresponded to areas with α-syn inclusions. Those cores that had imperfections or were incomplete were not included in the analysis, or only the area of remaining tissue that adhered to the glass slide was delineated. For the cores from the substantia nigra of PD patient cases, the cores selected for analysis were those containing α-syn inclusion, but no A-β deposits of pTau tangles. The information was collected from IHC analysis of adjacent TMA slides.
For high-resolution emulsion autoradiography, an autoradiography experiment with TMAs using 25 nM [^3H]GMC-058 was performed as described above. At the end of the 90 h exposure to the storage phosphor screen, slides were stored in a vacuum until dipping in a photoemulsion. In the dark, using a sodium lamp, Agar Scientific, AGP9284 type NTB emulsion was melted in a heated water bath and diluted (1:1) with ddH2O. The emulsion was poured into dipping chambers, and the slides were dipped and placed vertically to air-dry. When completely dry, the slides were placed in a light-tight slide box with desiccant and exposed at 4 C for 1–12 weeks. After exposure, the slides were developed in diluted Phenisol Developer for 2 min, rinsed in water, and fixed in hypam Fixer at 17 °C in a water bath. After rinsing in water, the slides were counterstained with Harris HTX, dehydrated in graded ethanol, cleared in Xylene, and mounted in Pertex. Images were taken using a 3D Histech P250 III scanner (3DHISTECH Kft. Hungary) at up to 15 focal layers with a distance of 0.2 μm.

[2] = biological target: AD, PSP, CBD, MSA-P, PD and control brain homogenates; assay: Saturation binding assays with [^3H]GMC-058 in brain homogenates
Description: For AD, CBD, PSP, and CT cases, the frozen tissue blocks were prepared as described by Stehouwer et al. [13]. In brief, tissue blocks were thawed and homogenized in ice-cold pH 7.0 phosphate-buffered saline (PBS) at 300 mg/mL on ice using a glass homogenizer, diluted 30-fold with PBS to 10 mg/mL, and homogenized a second time with a Brinkmann Polytron homogenizer before storage at −80 °C.
After incubation, samples were filtered under vacuum on equilibrated GF/B UniFilter plates (PerkinElmer) using the FilterMate 196 (PerkinElmer). Afterwards, filters were washed three times with 250 μL chilled buffer (PBS + 20% EtOH). [^3H]GMC-058 binding was measured with a beta scintillation counter (PerkinElmer). The saturation data was fitted and analyzed using the non-linear regression function of GraphPad Prism 10 software to calculate the dissociation constant (KD) and maximum number of binding sites (Bmax). Scatchard plots were prepared with GraphPad Prism 10 software to display the saturation binding data.

SMILES: [3H]c1cc(N2CCN(c3ccc(NC(=O)C(C)(C)C)cc3)CC2)ccc1OC [[^3H]GMC-058, N-(4-(4-(4-methoxy-[3-3H]phenyl)piperazin-1-yl)phenyl)pivalamide]
- Saturation binding autoradiography ([1]; 0.3 nM to 200 nM, TMAs): specific binding did not reach saturation in any of the tissues
- Specific binding versus displaceable binding in controls ([1]; 25 nM, PD, MSA, CAA, AD, PSP and CBD, p < 0.01): significantly higher than the displaceable binding in controls
- Co-localization of binding (high-resolution autoradiography) ([1]; 25 nM, TMAs): co-localized with α-syn inclusions in PD and MSA, with dense Aβ plaques in CAA and AD, and with p-tau inclusions in PSP and CBD
- Specific binding, mean ([1]; 25 nM, TMAs, AD): 127 ** fmol/mg tissue equivalent
- Specific binding, mean ([1]; 25 nM, TMAs, CAA): 131 ** fmol/mg tissue equivalent
- Specific binding, mean ([1]; 25 nM, TMAs, CBD): 204 *** fmol/mg tissue equivalent
- Specific binding, mean ([1]; 25 nM, TMAs, MSA): 166 ** fmol/mg tissue equivalent
- Displaceable (off-target) binding, mean ([1]; 25 nM, TMAs, NDE (non-dementia elderly controls)): 70 fmol/mg tissue equivalent
- Specific binding, mean ([1]; 25 nM, TMAs, PD): 129 *** fmol/mg tissue equivalent
- Specific binding, mean ([1]; 25 nM, TMAs, PSP): 173 *** fmol/mg tissue equivalent
- Displaceable (off-target) binding, mean ([1]; 25 nM, TMAs, liver control): 57 fmol/mg tissue equivalent
- Kd ([2]; AD brain homogenates): 5.4 nM
- Kd ([2]; CBD brain homogenates): > 50 nM
- Saturation binding ([2]; PD tissue): No evidence of saturation binding
- Kd ([2]; PSP brain homogenates): > 50 nM
- Kd ([2]; control brain homogenates): > 100 nM
